Measurements as given in patent US8933230B2, “Phosphorus-containing group-substituted quinoline, its preparation process, medical composition containing the compounds and application” (priority 2011, dated 2015).

Columns and labels:
ALK = molecular target: T1, ALK (Homo sapiens, UniProt Q9UM73); assay: KinomeScan kinase panel; type: binding
T1 construct: purchased DiscoveRx Corporation (KinomeScan)
Description: (§1) In this example, the compound prepared in Example 10, N1-[4-[[7-[[1-(diethoxyphosphorylmethyl)-4-piperidinyl]methoxyl]-6-methoxyl-4-quinolyl]oxyl]-3-fluorophenyl]-N1′-(4-fluorophenyl)cyclopropane-1,1-dicarboxamide is tested for the inhibitory effect in the 442-kinase panel of KinomeScan™ (www.kinomescan.com) from DiscoveRx Corporation (4215 Sorrento Valley Blvd, San Diego, Calif. 92121) at 1000 nM of the compound concentration, the results are shown in the following Table 5:
(§2) For the detailed information of the screening technique, see Fabian, M. A. et al, Nat., Biotechnol. 2005, 23, 329 and Karaman, M. W. et al, Nat., Biotechnol. 2008, 26, 127. It can be seen from the following representative results that, the compound according to the present invention has significant inhibitory effect on kinases including c-Met, KDR or VEGFR2, RET, PDGFR-β, c-KIT, Flt3, MEK5, DDR1, LOK, CSF1R, EPHA7, EPHA8, EPHB6, MKNK2, BLK, HIPK4, HCK, Flt4 and the mutants thereof

BRAF = molecular target: T2, BRAF (Homo sapiens, UniProt P15056); assay: KinomeScan kinase panel; type: binding
T2 construct: purchased DiscoveRx Corporation (KinomeScan)
Description: as §1, §2

CDC2L2 = molecular target: T3, CDC2L2 (Homo sapiens, UniProt Q9UQ88); assay: KinomeScan kinase panel; type: binding
T3 construct: purchased DiscoveRx Corporation (KinomeScan)
T3 sequence (Q9UQ88 whole entry): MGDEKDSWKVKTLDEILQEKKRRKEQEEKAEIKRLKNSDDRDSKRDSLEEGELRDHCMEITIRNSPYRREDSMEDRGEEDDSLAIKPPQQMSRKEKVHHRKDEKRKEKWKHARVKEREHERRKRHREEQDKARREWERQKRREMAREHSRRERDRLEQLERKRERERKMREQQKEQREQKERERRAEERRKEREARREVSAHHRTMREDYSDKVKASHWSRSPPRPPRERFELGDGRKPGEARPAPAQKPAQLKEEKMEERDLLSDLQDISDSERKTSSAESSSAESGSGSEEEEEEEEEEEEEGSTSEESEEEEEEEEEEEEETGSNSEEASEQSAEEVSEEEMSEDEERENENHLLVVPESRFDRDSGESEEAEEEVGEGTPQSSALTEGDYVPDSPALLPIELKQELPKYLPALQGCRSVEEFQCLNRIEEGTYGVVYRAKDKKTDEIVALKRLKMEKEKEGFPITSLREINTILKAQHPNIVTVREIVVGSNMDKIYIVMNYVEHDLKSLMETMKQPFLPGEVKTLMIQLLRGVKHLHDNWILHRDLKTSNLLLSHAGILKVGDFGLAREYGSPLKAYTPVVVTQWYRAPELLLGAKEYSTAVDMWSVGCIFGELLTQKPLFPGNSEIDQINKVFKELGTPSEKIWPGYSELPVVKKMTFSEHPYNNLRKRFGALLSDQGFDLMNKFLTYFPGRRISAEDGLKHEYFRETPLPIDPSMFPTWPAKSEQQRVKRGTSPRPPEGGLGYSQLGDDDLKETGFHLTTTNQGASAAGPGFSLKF
Description: as §1, §2

EPHB6 = molecular target: T4, EPHB6 (Homo sapiens, UniProt O15197); assay: KinomeScan kinase panel; type: binding
T4 construct: purchased DiscoveRx Corporation (KinomeScan)
Description: as §1, §2

FGFR3(G697C) = molecular target: T5, FGFR3(G697C) (Homo sapiens, UniProt P22607, G697C); assay: KinomeScan kinase panel; type: binding
T5 construct: purchased DiscoveRx Corporation (KinomeScan)
Description: as §1, §2

JNK3 = molecular target: T6, JNK3 (Homo sapiens, UniProt P53779); assay: KinomeScan kinase panel; type: binding
T6 construct: purchased DiscoveRx Corporation (KinomeScan)
T6 sequence (P53779 whole entry): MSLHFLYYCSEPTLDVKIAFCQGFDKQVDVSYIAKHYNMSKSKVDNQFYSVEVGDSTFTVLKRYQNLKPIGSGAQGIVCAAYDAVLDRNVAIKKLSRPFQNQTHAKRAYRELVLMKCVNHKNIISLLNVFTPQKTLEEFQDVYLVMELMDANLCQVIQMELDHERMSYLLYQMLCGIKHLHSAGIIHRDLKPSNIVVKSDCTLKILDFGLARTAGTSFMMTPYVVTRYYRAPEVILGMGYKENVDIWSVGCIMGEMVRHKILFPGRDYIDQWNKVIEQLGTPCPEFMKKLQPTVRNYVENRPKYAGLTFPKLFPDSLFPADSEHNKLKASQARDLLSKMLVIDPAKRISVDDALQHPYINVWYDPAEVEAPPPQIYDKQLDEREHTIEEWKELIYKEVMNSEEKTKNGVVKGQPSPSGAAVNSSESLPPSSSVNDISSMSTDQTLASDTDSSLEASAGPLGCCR
Description: as §1, §2

MARK1 = molecular target: T7, MARK1 (Homo sapiens, UniProt Q9P0L2); assay: KinomeScan kinase panel; type: binding
T7 construct: purchased DiscoveRx Corporation (KinomeScan)
Description: as §1, §2

MARK3 = molecular target: T8, MARK3 (Homo sapiens, UniProt P27448); assay: KinomeScan kinase panel; type: binding
T8 construct: purchased DiscoveRx Corporation (KinomeScan)
Description: as §1, §2

MST4 = molecular target: T9, MST4 (Homo sapiens, UniProt Q9P289); assay: KinomeScan kinase panel; type: binding
T9 construct: purchased DiscoveRx Corporation (KinomeScan)
T9 sequence (Q9P289 whole entry): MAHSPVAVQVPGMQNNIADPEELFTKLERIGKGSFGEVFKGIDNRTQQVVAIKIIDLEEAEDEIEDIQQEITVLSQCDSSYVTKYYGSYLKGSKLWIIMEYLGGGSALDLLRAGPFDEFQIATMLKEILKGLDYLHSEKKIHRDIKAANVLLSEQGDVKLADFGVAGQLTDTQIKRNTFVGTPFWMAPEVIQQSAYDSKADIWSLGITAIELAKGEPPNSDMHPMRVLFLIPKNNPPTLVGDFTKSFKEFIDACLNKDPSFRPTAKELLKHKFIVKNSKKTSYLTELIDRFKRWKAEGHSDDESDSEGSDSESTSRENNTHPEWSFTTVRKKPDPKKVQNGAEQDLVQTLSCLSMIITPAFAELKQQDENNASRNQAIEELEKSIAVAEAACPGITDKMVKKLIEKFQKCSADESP
Description: as §1, §2

NEK2 = molecular target: T10, NEK2 (Homo sapiens, UniProt P51955); assay: KinomeScan kinase panel; type: binding
T10 construct: purchased DiscoveRx Corporation (KinomeScan)
T10 sequence (P51955 whole entry): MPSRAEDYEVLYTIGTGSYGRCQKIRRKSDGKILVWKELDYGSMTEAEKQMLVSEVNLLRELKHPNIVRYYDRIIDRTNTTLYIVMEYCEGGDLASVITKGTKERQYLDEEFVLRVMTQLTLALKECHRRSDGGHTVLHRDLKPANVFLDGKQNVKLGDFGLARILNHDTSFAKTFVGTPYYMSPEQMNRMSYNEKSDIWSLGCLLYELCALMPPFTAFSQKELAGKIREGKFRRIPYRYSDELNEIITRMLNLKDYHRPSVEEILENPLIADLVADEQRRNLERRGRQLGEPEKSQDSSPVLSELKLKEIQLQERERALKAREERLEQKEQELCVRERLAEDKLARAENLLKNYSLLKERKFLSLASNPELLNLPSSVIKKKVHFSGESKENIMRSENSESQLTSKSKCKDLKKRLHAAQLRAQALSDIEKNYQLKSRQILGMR
Description: as §1, §2

NEK3 = molecular target: T11, NEK3 (Homo sapiens, UniProt P51956); assay: KinomeScan kinase panel; type: binding
T11 construct: purchased DiscoveRx Corporation (KinomeScan panel)
Description: as §1, §2

PAK3 = molecular target: T12, PAK3 (Homo sapiens, UniProt O75914); assay: KinomeScan kinase panel; type: binding
T12 construct: purchased DiscoveRx Corporation (KinomeScan panel)
Description: as §1, §2

PAK6 = molecular target: T13, PAK6 (Homo sapiens, UniProt Q9NQU5); assay: KinomeScan kinase panel; type: binding
T13 construct: purchased DiscoveRx Corporation (KinomeScan panel)
Description: as §1, §2

PFTK = molecular target: T14, PFTK (Homo sapiens, UniProt O94921); assay: KinomeScan kinase panel; type: binding
T14 construct: purchased DiscoveRx Corporation (KinomeScan)
Description: as §1, §2

PIK3CA(E545A) = molecular target: T15, PIK3CA(E545A) (Homo sapiens, UniProt P42336, E545A); assay: KinomeScan kinase panel; type: binding
T15 construct: purchased DiscoveRx Corporation (KinomeScan)
Description: as §1, §2

PRKG1 = molecular target: T16, PRKG1 (Homo sapiens, UniProt Q13976); assay: KinomeScan kinase panel; type: binding
T16 construct: purchased DiscoveRx Corporation (KinomeScan)
T16 sequence (Q13976 whole entry): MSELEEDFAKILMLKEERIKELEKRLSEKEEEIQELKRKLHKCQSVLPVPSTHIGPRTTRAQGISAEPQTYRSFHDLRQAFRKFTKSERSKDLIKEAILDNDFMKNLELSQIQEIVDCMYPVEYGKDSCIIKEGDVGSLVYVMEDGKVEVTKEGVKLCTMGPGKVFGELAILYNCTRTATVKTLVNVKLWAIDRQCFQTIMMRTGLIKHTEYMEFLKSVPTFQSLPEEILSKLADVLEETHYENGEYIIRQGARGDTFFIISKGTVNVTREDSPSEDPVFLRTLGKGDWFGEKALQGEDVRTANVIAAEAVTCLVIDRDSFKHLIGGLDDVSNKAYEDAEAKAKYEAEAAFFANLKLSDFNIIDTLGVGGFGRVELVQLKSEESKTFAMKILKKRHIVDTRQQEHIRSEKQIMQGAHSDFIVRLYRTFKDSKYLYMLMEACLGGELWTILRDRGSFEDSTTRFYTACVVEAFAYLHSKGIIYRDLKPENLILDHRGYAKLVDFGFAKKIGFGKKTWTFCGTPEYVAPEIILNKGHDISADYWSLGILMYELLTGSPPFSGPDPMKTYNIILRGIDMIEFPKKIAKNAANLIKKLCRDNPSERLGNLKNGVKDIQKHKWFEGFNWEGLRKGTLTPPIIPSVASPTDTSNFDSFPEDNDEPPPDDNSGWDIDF
Description: as §1, §2

SGK3 = molecular target: T17, SGK3 (Homo sapiens, UniProt Q96BR1); assay: KinomeScan kinase panel; type: binding
T17 construct: purchased DiscoveRx Corporation (KinomeScan)
T17 sequence (Q96BR1 whole entry): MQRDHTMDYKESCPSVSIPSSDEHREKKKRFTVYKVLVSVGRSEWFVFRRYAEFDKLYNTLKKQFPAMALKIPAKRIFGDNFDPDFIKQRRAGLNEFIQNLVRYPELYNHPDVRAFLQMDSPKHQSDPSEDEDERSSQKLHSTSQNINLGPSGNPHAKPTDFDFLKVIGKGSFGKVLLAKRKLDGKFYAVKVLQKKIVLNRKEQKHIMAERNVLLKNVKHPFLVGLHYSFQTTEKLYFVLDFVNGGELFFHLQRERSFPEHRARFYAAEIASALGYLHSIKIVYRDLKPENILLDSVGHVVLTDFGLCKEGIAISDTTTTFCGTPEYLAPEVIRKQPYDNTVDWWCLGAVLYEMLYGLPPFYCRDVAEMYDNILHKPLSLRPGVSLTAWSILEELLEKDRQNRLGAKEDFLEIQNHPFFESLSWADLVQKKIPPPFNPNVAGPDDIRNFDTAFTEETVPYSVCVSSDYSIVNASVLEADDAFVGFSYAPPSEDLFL
Description: as §1, §2

STK36 = molecular target: T18, STK36 (Homo sapiens, UniProt Q9NRP7); assay: KinomeScan kinase panel; type: binding
T18 construct: purchased DiscoveRx Corporation (KinomeScan)
Description: as §1, §2

TAOK2 = molecular target: T19, TAOK2 (Homo sapiens, UniProt Q9UL54); assay: KinomeScan kinase panel; type: binding
T19 construct: purchased DiscoveRx Corporation (KinomeScan)
Description: as §1, §2

TGFBR2 = molecular target: T20, TGFBR2 (Homo sapiens, UniProt P37173); assay: KinomeScan kinase panel; type: binding
T20 construct: purchased DiscoveRx Corporation (KinomeScan)
Description: as §1, §2

PFPK5 (P. falciparum) = molecular target: T21, PFPK5 (P. falciparum) (Plasmodium falciparum, UniProt P61075); assay: KinomeScan kinase panel; type: binding
T21 construct: purchased DiscoveRx Corporation (KinomeScan)
T21 sequence (P61075 whole entry): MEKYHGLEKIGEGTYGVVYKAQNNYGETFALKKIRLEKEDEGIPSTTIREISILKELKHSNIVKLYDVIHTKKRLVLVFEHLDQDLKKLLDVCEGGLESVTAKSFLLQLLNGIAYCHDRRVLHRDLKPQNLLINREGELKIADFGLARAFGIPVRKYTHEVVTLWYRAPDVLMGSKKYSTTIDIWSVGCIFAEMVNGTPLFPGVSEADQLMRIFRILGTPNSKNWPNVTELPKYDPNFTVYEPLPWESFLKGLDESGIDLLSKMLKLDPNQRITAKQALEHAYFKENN

PKNB (M. tuberculosis) = molecular target: T22, PKNB (M. tuberculosis) (Mycobacterium tuberculosis, UniProt P9WI81); assay: KinomeScan kinase panel; type: binding
T22 construct: purchased DiscoveRx Corporation (KinomeScan)

VEGFR2 [1] = molecular target: T23, VEGFR2 (Homo sapiens, UniProt P35968); assay: KinomeScan kinase panel; type: binding; parameters: purchased DiscoveRx Corporation (KinomeScan service)
T23 sequence (P35968 20-1356): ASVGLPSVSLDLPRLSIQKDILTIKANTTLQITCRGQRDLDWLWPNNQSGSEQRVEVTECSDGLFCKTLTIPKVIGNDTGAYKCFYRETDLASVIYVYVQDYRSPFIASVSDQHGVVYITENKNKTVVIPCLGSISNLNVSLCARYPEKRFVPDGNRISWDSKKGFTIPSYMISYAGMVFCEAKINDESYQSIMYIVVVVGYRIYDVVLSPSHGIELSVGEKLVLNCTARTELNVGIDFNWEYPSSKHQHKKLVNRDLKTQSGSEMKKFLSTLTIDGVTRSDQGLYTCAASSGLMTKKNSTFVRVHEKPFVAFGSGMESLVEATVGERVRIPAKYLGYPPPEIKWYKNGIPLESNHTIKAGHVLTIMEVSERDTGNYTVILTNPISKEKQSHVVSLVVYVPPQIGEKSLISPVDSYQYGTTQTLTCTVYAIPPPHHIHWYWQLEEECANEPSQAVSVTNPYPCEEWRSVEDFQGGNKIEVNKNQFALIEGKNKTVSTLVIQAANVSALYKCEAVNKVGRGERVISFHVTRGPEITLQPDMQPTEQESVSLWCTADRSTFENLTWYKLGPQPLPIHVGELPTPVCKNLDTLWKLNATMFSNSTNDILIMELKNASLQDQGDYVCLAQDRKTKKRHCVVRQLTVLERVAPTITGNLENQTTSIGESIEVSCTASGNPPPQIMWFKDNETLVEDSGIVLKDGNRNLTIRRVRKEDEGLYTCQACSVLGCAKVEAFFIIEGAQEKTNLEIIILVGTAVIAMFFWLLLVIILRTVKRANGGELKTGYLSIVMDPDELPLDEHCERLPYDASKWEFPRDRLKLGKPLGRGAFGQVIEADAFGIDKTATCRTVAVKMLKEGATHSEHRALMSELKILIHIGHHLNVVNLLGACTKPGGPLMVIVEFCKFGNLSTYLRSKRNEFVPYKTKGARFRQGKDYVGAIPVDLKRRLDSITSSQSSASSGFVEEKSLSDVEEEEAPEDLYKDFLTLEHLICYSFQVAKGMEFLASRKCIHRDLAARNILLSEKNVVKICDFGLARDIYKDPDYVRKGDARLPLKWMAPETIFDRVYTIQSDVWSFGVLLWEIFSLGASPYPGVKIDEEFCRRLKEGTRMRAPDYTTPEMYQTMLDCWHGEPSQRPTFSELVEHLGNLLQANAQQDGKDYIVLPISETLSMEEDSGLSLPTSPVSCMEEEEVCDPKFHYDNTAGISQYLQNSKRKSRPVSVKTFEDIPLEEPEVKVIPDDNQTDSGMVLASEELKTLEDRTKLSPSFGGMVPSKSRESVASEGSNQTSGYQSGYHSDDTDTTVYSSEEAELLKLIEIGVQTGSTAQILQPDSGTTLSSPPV
Description: as §1, §2

VEGFR2 [2] = molecular target: T23, VEGFR2; assay: VEGFR2 kinase phosphorylation in HUE cells (sandwich ELISA); type: cell-based; parameters: cell line HUE having endogenous high expression vascular endothelial growth factor-R2 (VEGFR2); endogenous in cells; host or cells: HUE; settings: VEGF-A 100 ng/mL 3 min, mean value of two testing results, read-out: IC50 values in the cell, VEGFR2
Description: Inhibitory activity on the kinases in tumor cells: In this example, the compound prepared in Example 10, N1-[4-[[7-[[1-(diethoxyphosphorylmethyl)-4-piperidinyl]methoxyl]-6-methoxyl-4-quinolyl]oxyl]-3-fluorophenyl]-N1′-(4-fluorophenyl)cyclopropane-1,1-dicarboxamide is tested in tumor cells by ProQinase GmbH corporation (Breisacher Str. 117, D-79106 Freiburg, Germany. www.proqinase.com) for the inhibitory activity on the following kinases: c-KIT, c-MET, VEGFR2 and PDGFR-β. The test includes the following steps:
Firstly, the compound according to present invention is dissolved in dimethyl sulfoxide (DMSO) to prepare a 10 mM stock solution, which is diluted serially according to the concentration range shown in Table 6:
VEGFR2 kinase: in the test experiment of VEGFR2 kinase phosphorylation in the cells, a spontaneous immortalized human umbilical vein endothelial cell line HUE having endogenous high expression vascular endothelial growth factor-R2 (VEGFR2) is used. When these cells are simulated with human vascular endothelial growth factor-A (VEGF-A), it causes the tyrosine of VEGFR2 receptor kinases self-phosphorylated. HUE cells are inoculated in endothelial cell growth medium (ECGM) containing 10% FCS in a multi-well cell culture dish. […]

Compound: CCOP(=O)(CN1CCC(COc2cc3nccc(Oc4ccc(NC(=O)C5(C(=O)Nc6ccc(F)cc6)CC5)cc4F)c3cc2OC)CC1)OCC [Example 10, N1-[4-[[7-[[1-(diethoxyphosphorylmethyl)-4-piperidinyl]methoxyl]-6-methoxyl-4-quinolyl]oxyl]-3-fluorophenyl]-N1′-(4-fluorophenyl)cyclopropane-1,1-dicarboxamide]
- % Ctrl@1000 nM (ALK): 15 % Ctrl
- % Ctrl@1000 nM (BRAF): 100 % Ctrl
- % Ctrl@1000 nM (CDC2L2): 100 % Ctrl
- % Ctrl@1000 nM (EPHB6): 0.9 % Ctrl
- % Ctrl@1000 nM (FGFR3(G697C)): 100 % Ctrl
- % Ctrl@1000 nM (JNK3): 95 % Ctrl
- % Ctrl@1000 nM (MARK1): 100 % Ctrl
- % Ctrl@1000 nM (MARK3): 100 % Ctrl
- % Ctrl@1000 nM (MST4): 80 % Ctrl
- % Ctrl@1000 nM (NEK2): 100 % Ctrl
- % Ctrl@1000 nM (NEK3): 58 % Ctrl
- % Ctrl@1000 nM (PAK3): 32 % Ctrl
- % Ctrl@1000 nM (PAK6): 87 % Ctrl
- % Ctrl@1000 nM (PFTK): 100 % Ctrl
- % Ctrl@1000 nM (PIK3CA(E545A)): 74 % Ctrl
- % Ctrl@1000 nM (PRKG1): 100 % Ctrl
- % Ctrl@1000 nM (SGK3): 75 % Ctrl
- % Ctrl@1000 nM (STK36): 100 % Ctrl
- % Ctrl@1000 nM (TAOK2): 70 % Ctrl
- % Ctrl@1000 nM (TGFBR2): 100 % Ctrl
- % Ctrl@1000 nM (PFPK5 (P. falciparum)): 100 % Ctrl
- % Ctrl@1000 nM (PKNB (M. tuberculosis)): 96 % Ctrl
- % Ctrl@1000 nM (VEGFR2 [1]): 3.9 % Ctrl
- IC50 (VEGFR2 [2]): 0.43 nM
